The numbers were not newly measured in patent US20250288540A1, “METHODS AND COMPOSITIONS FOR PAIN MANAGEMENT” (SILO PHARMA, INC., priority 2024, published 2025), which cites them from elsewhere.

Molecules are shown by their SMILES.

The test system of data set [1] is N-methyl-D-aspartate (NMDA) receptor.
The subject of data set [2] is halothane requirements (MAC). Conditions: rat.

`CNC1(c2ccccc2Cl)CCCCC1=O.Cl` (centres unmarked) [Ketamine hydrochloride, 2-(2-chlorophenyl)-2-(methylamino) cyclohexan-1-one hydrochloride]: under “ethanol”, the solubility in ethanol was approximately 750 mg/mL. For the same compound, where the note is “ether”, the solubility in ether result is recorded as “practically insoluble”. Also, for the setting “methanol”, the solubility in methanol entry was “freely soluble”.
Take `NC1(c2ccccc2Cl)CCCCC1=O` (centres unmarked) [Norketamine]: in data set [1], the “affinity at the NMDA receptor compared with ketamine” value is listed as “less affinity”. Also, the “activity relative to ketamine in reducing halothane requirements (MAC)” value in data set [2] is given as “about ⅓”.
